Measured values reported in PMC5904360, “Soluble N-Ethylmaleimide-Sensitive Factor Attachment Protein Receptor-Derived Peptides for Regulation of Mast Cell Degranulation” (Frontiers in Immunology, 2018).

How the values were obtained:
[1] = target: T1, SN23-Syn4-Vp2 SNARE complex (Rattus norvegicus, UniProt O70377+P63045+Q08850); assay: SNARE-driven membrane fusion (total lipid mixing) assay with proteoliposomes; assay type: biochemical; details: for inhibition of membrane fusion (lipid mixing): inhibitor applied to T-vesicles, T:V 9:1, 37°C, NBD dequenching, Vp2S/Vp8S at 10 µM, three independent experiments (Figure 3B-D); for inhibition of membrane fusion, peptide added after preincubation: peptide added after preincubation of T- and V-liposomes at 4°C overnight (partially zippered SNAREs) (Figure 4A); for inhibition of membrane fusion, peptide added before preincubation: peptide added before preincubation of T- and V-liposomes at 4°C overnight (Figure 4A)
T1 construct: Syn4 (amino acids 1–298); SNAP-23 (amino acids 1–210); full-length VAMP2 (VpF, amino acids 1–116); GST (N, cleaved yes); made in house; host or cells: Escherichia coli Rosetta(DE3)pLysS
T1 sequence (Q08850 whole entry, the tested form may be a part): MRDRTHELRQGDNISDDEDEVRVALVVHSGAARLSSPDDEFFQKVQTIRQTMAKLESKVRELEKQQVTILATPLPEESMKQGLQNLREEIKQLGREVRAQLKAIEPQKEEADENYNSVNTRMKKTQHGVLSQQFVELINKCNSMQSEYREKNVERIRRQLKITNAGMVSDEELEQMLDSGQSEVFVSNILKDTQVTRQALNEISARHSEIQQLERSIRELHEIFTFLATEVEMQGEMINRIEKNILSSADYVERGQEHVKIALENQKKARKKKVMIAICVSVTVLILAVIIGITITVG
T1 sequence (O70377 whole entry, the tested form may be a part): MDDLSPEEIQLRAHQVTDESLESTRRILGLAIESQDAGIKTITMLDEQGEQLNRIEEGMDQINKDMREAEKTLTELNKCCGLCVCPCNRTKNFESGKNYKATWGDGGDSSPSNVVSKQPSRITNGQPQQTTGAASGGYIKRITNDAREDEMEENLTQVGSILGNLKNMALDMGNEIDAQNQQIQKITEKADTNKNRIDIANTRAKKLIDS
T1 sequence (P63045 whole entry, the tested form may be a part): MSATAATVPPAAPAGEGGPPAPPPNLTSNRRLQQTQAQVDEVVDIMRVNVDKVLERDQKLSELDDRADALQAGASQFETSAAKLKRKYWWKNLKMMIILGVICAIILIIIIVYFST
Excerpt: Total RNA was obtained from RBL-2H3 cells using TRIzol® Reagent (#15596026, Invitrogen, Carlsbad, CA, USA) and served as a template for cDNA synthesis with M-MLV reverse transcriptase (M1705, Promega, Madison, WI, USA) according to the manufacturer’s protocol. The cDNAs amplified for rat Syn4, SNAP-23, VAMP2, VAMP4, VAMP7, and VAMP8 using each primer pair ([4]), were cloned into the pGEX-4T 1 vector. The mast cell SNARE proteins [Syn4 (amino acids 1–298), SNAP-23 (amino acids 1–210), full-length VAMP2 (VpF, amino acids 1–116), VAMP4 (amino acids 1–141), and VAMP8 (amino acids 1–100)] were expressed in Escherichia coli Rosetta(DE3)pLysS (#70956, Novagen, Darmstadt, Germany) and purified as glutathione-S-transferase-tagged fusion proteins as reported previously ([8]).
To prepare the unilamellar liposomes, a 50-mM lipid mixture of palmitoyl-2-oleoylphosphatidylcholine (POPC) (#850457, Avanti Polar Lipids, Alabaster, AL, USA):1,2-dioleoyl-phosphatidylserine (DOPS) (#840035, Avanti Polar Lipids) at 65:35 mol% was dried in a glass tube under a gentle stream of nitrogen gas and then exposed to a vacuum overnight. The resultant lipid film was resuspended in dialysis buffer (25 mM HEPES and 100 mM KCl, pH 7.4) by vortexing, followed by an extrusion step with polycarbonate membrane filters having a pore size of 100 nm (#610005, Avanti Polar Lipids). To prepare proteoliposomes, binary T-SNAREs, which were pre-formed by mixing Syn4 and SNAP-23 at room temperature for 60 min, were incubated with 50 mM unilamellar liposomes for 15 min at the same temperature, resulting in a 50:1 lipid/protein molar ratio ([9]).
For the preparation of V-SNARE proteoliposomes, a 10-mM premixed lipid solution [POPC:DOPS:N-(7-nitro-2-1,3-benzoxadiazol-4-yl (NBD))-phosphatidylserine (#810198, Avanti Polar Lipids):[…] (#810150, Avanti Polar Lipids) = 62:35:1.5:1.5 (molar ratio)] was used for the preparation of fluorescent liposomes in the same manner as above. The prepared liposomes were then mixed with VAMP2 for 15 min at room temperature. The liposome/protein mixture was diluted twice to bring the concentration of n-octyl glucoside (O8001, Sigma-Aldrich) below the critical micelle concentration. After overnight dialysis against 1L dialysis buffer at 4°C to remove the detergent, SM-2 bio-beads (#1523920, Bio-Rad Laboratories, Hercules, CA, USA) were added to the sample to remove any remaining n-octyl glucoside. The solution was then centrifuged at 10,000 × g to remove the protein/lipid aggregates, and the final lipid concentrations of both the T- and V-liposomes were adjusted to 1 mM with a lipid-to-protein ratio of 50:1.
A total lipid mixing assay using the T- and V-liposomes was performed as described previously with minor modifications ([8]). […] The fusion was monitored using the dequenching of NBD fluorescence signal (excitation 465 nm/emission 530 nm). After at least 80 min of fusion, the maximum NBD signal was obtained by adding 0.1% Triton X-100™. All the lipid-mixing experiments were performed at 37°C.

SN23-Syn4-Vp2 complex = target: T2, SN23-Syn4-Vp2 complex (Rattus norvegicus, UniProt O70377+P63045+Q08850); assay: Co-immunoprecipitation of SNARE complexes in activated RBL-2H3 cells, anti-SNAP-23 blot; assay type: cell-based; details: peptides added to the medium after A23187 pretreatment; IP of Vp2, blot anti-SNAP-23 (Figure 4C)
T2 construct: Lysates of RBL-2H3 cells; endogenous in cells; host or cells: RBL-2H3 (ATCC CRL-2256)
T2 sequence (Q08850 whole entry): as the sequence (Q08850 whole entry, the tested form may be a part) above
T2 sequence (O70377 whole entry): as the sequence (O70377 whole entry, the tested form may be a part) above
T2 sequence (P63045 whole entry): as the sequence (P63045 whole entry, the tested form may be a part) above

RBL-2H3 mast cells = assay: Degranulation assay, histamine release (enzyme immunoassay); assay type: cell-based, rat; details: for inhibition of histamine release: PTD-conjugated peptide without SLO (LY294002 as positive control), DNP-IgE sensitized, DNP-BSA stimulation, no A23187 pretreatment, three independent experiments (Figure 2C); for inhibition of histamine release after A23187 pretreatment: cells pretreated with A23187, sensitized with DNP-IgE, then PTD-conjugated peptide (Figure 4B)

Row | Sequence | inhibition of membrane fusion (lipid mixing) [1] | inhibition of membrane fusion, peptide added after preincubation [1] | inhibition of membrane fusion, peptide added before preincubation [1] | SNARE complex formation in cells (amount of SN23-Syn4-Vp2 complex) (SN23-Syn4-Vp2 complex) | inhibition of histamine release (RBL-2H3 mast cells) | inhibition of histamine release after A23187 pretreatment (RBL-2H3 mast cells)
1 | EDEMEENLTQVGSILGN [SC23N, 17-mer peptide, N-terminal region of SNAP-23 SNARE motif SC23] | inhibited membrane fusion by both the SN23-Syn4-Vp2 and SN23-Syn4-Vp8 complexes | inhibitory activities significantly diminished | inhibited the membrane fusion induced by both SN23-Syn4-Vp2 and SN23-Syn4-Vp8 | reduced | – | –
2 | LQSEVEGVKNIMTQNVE [Vp8N, 17-mer peptide, N-terminal region of VAMP8 SNARE motif] | – | – | – | – | almost equally inhibited the release of both β-hexosaminidase and histamine | inhibited both histamine and β-hexosaminidase release
3 | SARHSEIQQLERTIREL [Syn4N, 17-mer peptide, N-terminal region of syntaxin 4 SNARE motif] | inhibited membrane fusion by both the SN23-Syn4-Vp2 and SN23-Syn4-Vp8 complexes | inhibitory activities significantly diminished | inhibited the membrane fusion induced by both SN23-Syn4-Vp2 and SN23-Syn4-Vp8 | reduced | almost equally inhibited the release of both β-hexosaminidase and histamine | inhibited both histamine and β-hexosaminidase release
